Results published in patent US20030186980A1, “Anthelmintic agents for preventing parasitic infections in humans and animals III” (priority 2000, published 2003).

What was measured:
[1] = system: Schistosoma mansoni cercariae; test: Activity against Schistosoma mansoni cercariae (survival/mobility observed with a stereomagnifier); set-up: key: no effect during the entire test period of 120 minutes; 1: weak effect (the cercariae have a strongly reduced mobility); 2: good effect (the cercariae are only slightly mobile and bent); 3: full effect (the cercariae are completely immobile); details: 500 μl/l final concentration of active compound; PEG300/aquarium water; test period of 120 minutes; about 100 to 150 cercariae per batch
Method: [500 μl/l final concentration of the active compounds] Snails (Biomphalaria glabrata) were infected by incubating each of them with 8 miracidia in 10 ml of water overnight. About 6 to 9 weeks after the infection, cercariae were obtained by irradiating the snails, which had been kept in darkness, with light, followed by collection of the swarming cercariae within 2 hours.
Such an amount of cercariae-containing water (1 or 2 ml, see below) was added to the test batches that each batch contained about 100 to 150 cercariae.
5 μl of active compound were mixed thoroughly with 25 μl of PEG300. 9 ml of aquarium water was then added, and the batch was shaken vigorously. After (delayed) addition of 1 ml of cercariae suspension, survival of the cercariae was in each case observed immediately using a stereomagnifier.

[2] = system: cercariae of Schistosoma mansoni; details: topical, monkeys; Bruce et al. 1992; cited from earlier work
[3] = system: cercariae of Schistosoma mansoni; details: Fripp and Armstrong 1973; cited from earlier work
[4] = system: cercariae of Schistosoma mansoni; details: topical; Salafsky et al. 1998; cited from earlier work

## CCC(C)N(C)C(=O)N1CC(C)OC(C)C1 (stereo not shown)
[1]
  activity rating against Schistosoma mansoni cercariae: 1

## O=C(Nc1ccc([N+](=O)[O-])cc1Cl)c1cc(Cl)ccc1O [Niclosamide]
[2]
  action against the penetration of cercariae: acts against the penetration of cercariae

## Oc1c(Cl)cc(Cl)c(Cl)c1Cc1c(O)c(Cl)cc(Cl)c1Cl [hexachlorophene]
[3]
  effect on cercariae of Schistosoma mansoni: lethal effect

## CCN(CC)C(=O)c1cccc(C)c1 [N,N-Diethyl-m-toluamide (DEET), N,N-Diethyl-m-toluamide]
[4]
  action against cercariae of Schistosoma mansoni: acts against cercariae
